We go through 1 compound from paper PMC12767113, “EM2, a Natural Product MST1/2 Kinase Activator, Suppresses Non‐Small Cell Lung Cancer via Hippo Pathway Activation” (Advanced Science, 2025).

Assay [1] concerns the target T1, MST1 (Homo sapiens, UniProt Q13043).
T1 sequence (Q13043 1-487): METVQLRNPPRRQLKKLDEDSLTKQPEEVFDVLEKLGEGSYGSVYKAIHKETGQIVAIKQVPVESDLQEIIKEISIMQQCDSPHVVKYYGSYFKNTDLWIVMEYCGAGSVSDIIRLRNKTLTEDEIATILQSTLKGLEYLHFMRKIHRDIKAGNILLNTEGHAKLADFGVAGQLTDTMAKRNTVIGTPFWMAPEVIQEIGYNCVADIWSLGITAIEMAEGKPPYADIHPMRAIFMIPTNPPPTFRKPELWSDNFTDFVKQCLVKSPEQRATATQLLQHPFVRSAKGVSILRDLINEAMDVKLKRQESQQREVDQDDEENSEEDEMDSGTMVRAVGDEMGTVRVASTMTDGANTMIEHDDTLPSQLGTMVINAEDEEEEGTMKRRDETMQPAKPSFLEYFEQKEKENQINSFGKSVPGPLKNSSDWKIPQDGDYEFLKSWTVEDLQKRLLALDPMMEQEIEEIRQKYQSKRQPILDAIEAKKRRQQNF
Put plainly: ADP-Glo kinase assay. Type of assay: biochemical. Set-up: gene STK4; isolated MST1 protein (ITC) and "active MST1" (ADP-Glo). The conditions noted are these: activator; ATP and MOB1a substrate; 25 °C, 30 min.

For assay [2], the target named is T1, MST1. In words: isothermal titration calorimetry. The assay is classed as binding. Set-up: gene STK4; isolated MST1 protein (ITC) and "active MST1" (ADP-Glo). The note with it: 25 °C; 50 mM HEPES pH 7.5, 150 mM NaCl, 2 mM DTT.
The target in assay [3] is T1, MST1. In words: CETSA (immunoblot), H520 and A549 cells. The assay is classed as cell-based. Set-up: gene STK4; endogenous protein in A549 and H520 cells, detected by immunoblot (antibody CST #3682). The conditions noted are these: 42-56 °C, 3 min; supported by DARTS (50 and 100 µM, Pronase).
Assay [4] has as its target T2, MST1-GFP (Homo sapiens, UniProt Q13043).
T2 construct: gene STK4; GFP-tagged MST1 expressed from plasmid in A549 cells, RIPA lysate
T2 sequence (Q13043 1-487): T1 sequence (Q13043 1-487)
Put plainly: microscale thermophoresis. The note with it: A549 cell lysate; GFP fusion as fluorophore; constant, if any, only in figure. The text has this: microscale thermophoresis on MST1-GFP | Microscale thermophoresis confirmed dose‐dependent binding affinity (Figure 1H)

As to `C=C(C)C(=O)OC1CC(C)=CC2(OC)C=C(C)C(O2)C2OC(=O)C(=C)C12` (stereo not shown) [EM2], the kinase activity result in assay [1] is “functions through its kinase activity, which significantly increased with EM2 concentration (Figure 1J)”. Moreover, the Kd worked out at 1970 ± 1020 nM in assay [2] and 1790 ± 1690 nM in assay [4]. In addition, the “CETSA (immunoblot), H520 and A549 cells” value in assay [3] is given as “CETSA demonstrated that EM2 enhanced MST1 thermal stability”.
